Test results published in patent publication US12239654B2, “Compounds and methods for treating neurological and cardiovascular conditions” (Astrocyte Pharmaceuticals, Inc., priority 2016, dated 2025).
Several values for one entry are separate records, joined by “and”; a condition that tells them apart may be missing. Equal values may be shown once. Read-outs that look alike come from different tables or passages of the source.

Key:
[1] = Pharmacokinetics of MRS4322 following intravenous administration to neonatal pigs; assay type: in vivo
Description: Animals. Four-week old female neonatal pigs weighing approximately 7.5 Kg were used for this study, supplied by the Department of Bioengineering, University of Pennsylvania (Philadelphia, PA). Animals were equipped with brain microdialysis probes to obtain brain extracellular fluid samples for drug concentration determinations during the study. All studies were conducted under approved University of Pennsylvania IACUC protocols.
Drug Administration: MRS4322 was solubilized in DMSO and then diluted in saline to prepare dosing solution. A 10 mL volume of dosing solution was administered by intravenous bolus administration to each neonatal pig (n=3).
Tissue Sampling: Blood samples were obtained at 0.25, 0.5, 1, 2, 4 and 6 hours post-dose. Brain extracellular fluid samples were obtained from implanted microdialysis probes at 1, 4 and 6 hours post-dose. Whole blood (1 mL) was obtained at each timepoint and placed in vacutainer tubes containing heparin and immediately centrifuged for preparation of plasma; plasma was stored at −80° C. Brain extracellular and cerebrospinal fluid samples were stored at −80° C. At the time of euthanasia (6 hours post-dose), cerebrospinal fluid samples were obtained and frozen, while brain samples from the cortex and hippocampus were obtained by decapitation, rinsed in ice-cold phosphate-buffered saline and weighed. Brain samples were then immediately flash-frozen in liquid nitrogen and stored at −80° C.
(§1) The following table outlines the LC and MS/MS conditions employed:
The calibration ranges for all of the MRS4322 matrice's standard curves were 0.1-1000 ng/mL.
For bioanalysis of brain concentrations of MRS4322, brain samples were homogenized in ice-cold phosphate-buffered saline in a 4× dilution. Aliquots of the resulting diluted brain homogenate were treated with acetonitrile and analyzed by LC-MS/MS.

[2] = Pharmacokinetics of MRS4322 following intraperitoneal administration to mice (plasma and brain concentrations, LC-MS/MS); assay type: in vivo; conditions: female, mouse, plasma; for Tmax: MRS4322 0.16 mg/kg ip; for half-life: ip, MRS4322 […] ip
Description: Animals: Female C576BL/6J mice weighing approximately 0.02 kg were used for this study, supplied by the University of Texas Health Sciences Center (San Antonio, TX). All studies were conducted under approved University of Texas Health Sciences Center IACUC protocols.
Drug Administration: MRS4322 was solubilized in DMSO and then diluted in saline to prepare dosing solution. Final dosing solution concentration of MRS4322 was 100 μM. A 100 μL volume of dosing solution was administered intraperitoneally to each mouse per 20 gram body weight; MRS4322 was administered intraperitoneally at 0.16 mg/kg or 0.5 μmol/kg. Three mice were administered MRS4322 for each sampling timepoint.
Tissue Sampling: Blood and brain samples were obtained at 0, 0.083, 0.25, 0.5, 1, 2 and 8 hours post-dose. At each timepoint, mice (3/timepoint) were euthanized in a […] chamber. Whole blood was obtained by cardiac puncture into Microtainer tubes containing heparin and immediately centrifuged for preparation of plasma; plasma was stored at −80° C. At each timepoint, whole brain samples were obtained by decapitation, rinsed in ice-cold phosphate-buffered saline and weighed. Brain samples were then immediately flash-frozen in liquid nitrogen and stored at −80° C.
as §1
The calibration range for the MRS4322 plasma concentration standard curve was 2.42-242 ng/mL. The calibration range for MRS4322 brain concentrations was 2.41-233 ng/mL.
For bioanalysis of brain concentrations of MRS4322, brain samples were homogenized in ice-cold phosphate-buffered saline in a 4× dilution. Aliquots of the resulting diluted brain homogenate were treated with acetonitrile and analyzed by LC-MS/MS. Because of the 4× homogenate dilution, the calibration range of the MRS4322 brain standard curve was translated to 9.64-932 ng/gm. In several samples, MRS4322 was detectable but fell below the brain LLOQ of 9.64 ng/gm but were above background; in these cases the final reported brain concentration was extrapolated based on MS peak heights.

[3] = plasma, MRS4322 0.2 mg/kg IV, individual animals, 0.2 mg/kg

CSc1nc(N)c2ncn([C@H]3[C@H](O)[C@H](O)[C@]4(CO)C[C@H]34)c2n1 [MRS4322]
Brain Concentration by Subject ([1]; Brain Cortex, MRS4322 0.2 mg/kg IV, 6 h, individual subjects, 0.2 mg/kg): 3.80 ng/mL and 6.15 ng/mL | Brain Concentration by Subject ([1]; Brain Hippocampus, MRS4322 0.2 mg/kg IV, 6 h, individual subjects, 0.2 mg/kg): 4.56 ng/mL and 5.39 ng/mL | Cerebro-Spinal Fluid Concentration by Subject ([1]; CSF, MRS4322 0.2 mg/kg IV, 6 h, individual subjects, 0.2 mg/kg): 1.04 ng/mL and 1.75 ng/mL | Plasma Concentration by Subject ([1]; MRS4322 0.2 mg/kg IV, 0 h, individual subjects): BLQ | Plasma Concentration Mean ([1]; MRS4322 0.2 mg/kg IV, 0 h, mean): BLQ | Plasma Concentration by Subject ([1]; MRS4322 0.2 mg/kg IV, 0.25 h, individual subjects, 0.2 mg/kg): 120 ng/mL and 163 ng/mL | Plasma Concentration by Subject ([1]; MRS4322 0.2 mg/kg IV, 0.5 h, individual subjects, 0.2 mg/kg): 54.1 ng/mL and 98.7 ng/mL | Plasma Concentration by Subject ([1]; MRS4322 0.2 mg/kg IV, 1 h, individual subjects, 0.2 mg/kg): 51.4 ng/mL and 63.0 ng/mL | Plasma Concentration by Subject ([1]; MRS4322 0.2 mg/kg IV, 2 h, individual subjects, 0.2 mg/kg): 27.2 ng/mL and 18.7 ng/mL and 46.8 ng/mL | Plasma Concentration by Subject ([1]; MRS4322 0.2 mg/kg IV, 4 h, individual subjects, 0.2 mg/kg): 21.9 ng/mL and 28.7 ng/mL | Plasma Concentration by Subject ([1]; MRS4322 0.2 mg/kg IV, 6 h, individual subjects, 0.2 mg/kg): 15.3 ng/mL and 9.08 ng/mL and 20.8 ng/mL | Extracellular Fluid Concentration by Subject ([1]; brain ECF (microdialysis), MRS4322 0.2 mg/kg IV, 1 h, individual subjects, 0.2 mg/kg): 1.55 ng/mL and 0.641 ng/mL and 1.70 ng/mL | Extracellular Fluid Concentration by Subject ([1]; brain ECF, MRS4322 0.2 mg/kg IV, 4 h, individual subjects, 0.2 mg/kg): 0.693 ng/mL and 0.579 ng/mL and 1.36 ng/mL | Extracellular Fluid Concentration by Subject ([1]; brain ECF, MRS4322 0.2 mg/kg IV, 6 h, individual subjects, 0.2 mg/kg): 0.602 ng/mL and 0.459 ng/mL and 1.08 ng/mL | Kp at 6 h ([1]; female, pig, 0.2 mg/kg, IV, 6 hours post-dose, based on mean concentrations in plasma and brain, read-out: brain/plasma ratio of total drug): ~0.3 | concentration at 6 h ([1]; female, pig, brain cortex, iv, 0.2 mg/kg, Brain Cortex, MRS4322 0.2 mg/kg IV, 6 h, individual subjects, read-out: Brain Concentration by Subject): 5.34 ng/mL | concentration at 6 h ([1]; female, pig, brain cortex, iv, 0.2 mg/kg, Brain Cortex, MRS4322 0.2 mg/kg IV, 6 h, mean, read-out: Brain Concentration Mean): 5.1 ng/mL | concentration at 1 h ([1]; female, pig, brain extracellular fluid, iv, 0.2 mg/kg, brain ECF, MRS4322 0.2 mg/kg IV, 1 h, mean, read-out: Extracellular Fluid Concentration Mean): 1.3 ng/mL | concentration at 4 h ([1]; female, pig, brain extracellular fluid, iv, 0.2 mg/kg, brain ECF, MRS4322 0.2 mg/kg IV, 4 h, mean, read-out: Extracellular Fluid Concentration Mean): 0.941 ng/mL | concentration at 6 h ([1]; female, pig, brain extracellular fluid, iv, 0.2 mg/kg, brain ECF, MRS4322 0.2 mg/kg IV, 6 h, mean, read-out: Extracellular Fluid Concentration Mean): 0.714 ng/mL | concentration at 6 h ([1]; female, pig, brain hippocampus, iv, 0.2 mg/kg, Brain Hippocampus, MRS4322 0.2 mg/kg IV, 6 h, individual subjects, read-out: Brain Concentration by Subject): 6.47 ng/mL | concentration at 6 h ([1]; female, pig, brain hippocampus, iv, 0.2 mg/kg, Brain Hippocampus, MRS4322 0.2 mg/kg IV, 6 h, mean, read-out: Brain Concentration Mean): 5.47 ng/mL | concentration at 6 h ([1]; female, pig, cerebrospinal fluid, iv, 0.2 mg/kg, CSF, MRS4322 0.2 mg/kg IV, 6 h, individual subjects, read-out: Cerebro-Spinal Fluid Concentration by Subject): 1.37 ng/mL | concentration at 6 h ([1]; female, pig, cerebrospinal fluid, iv, 0.2 mg/kg, CSF, MRS4322 0.2 mg/kg IV, 6 h, mean, read-out: Cerebro-Spinal Fluid Concentration Mean): 1.39 ng/mL | Tmax ([1]; female, pig, plasma, MRS4322 0.2 mg/kg IV, mean, read-out: Tmax Mean): 15 min | concentration at 0.25 h ([1]; female, pig, plasma, iv, 0.2 mg/kg, MRS4322 0.2 mg/kg IV, 0.25 h, individual subjects, read-out: Plasma Concentration by Subject): 133 ng/mL | concentration at 0.25 h ([1]; female, pig, plasma, iv, 0.2 mg/kg, MRS4322 0.2 mg/kg IV, 0.25 h, mean, read-out: Plasma Concentration Mean): 139 ng/mL | concentration at 0.5 h ([1]; female, pig, plasma, iv, 0.2 mg/kg, MRS4322 0.2 mg/kg IV, 0.5 h, individual subjects, read-out: Plasma Concentration by Subject): 85.3 ng/mL | concentration at 0.5 h ([1]; female, pig, plasma, iv, 0.2 mg/kg, MRS4322 0.2 mg/kg IV, 0.5 h, mean, read-out: Plasma Concentration Mean): 79.4 ng/mL | concentration at 1 h ([1]; female, pig, plasma, iv, 0.2 mg/kg, MRS4322 0.2 mg/kg IV, 1 h, individual subjects, read-out: Plasma Concentration by Subject): 58.9 ng/mL | concentration at 1 h ([1]; female, pig, plasma, iv, 0.2 mg/kg, MRS4322 0.2 mg/kg IV, 1 h, mean, read-out: Plasma Concentration Mean): 57.8 ng/mL | concentration at 2 h ([1]; female, pig, plasma, iv, 0.2 mg/kg, MRS4322 0.2 mg/kg IV, 2 h, mean): 30.9 ng/mL | concentration at 4 h ([1]; female, pig, plasma, iv, 0.2 mg/kg, MRS4322 0.2 mg/kg IV, 4 h, individual subjects, read-out: Plasma Concentration by Subject): 23.3 ng/mL | concentration at 4 h ([1]; female, pig, plasma, iv, 0.2 mg/kg, MRS4322 0.2 mg/kg IV, 4 h, mean, read-out: Plasma Concentration Mean): 24.6 ng/mL | concentration at 6 h ([1]; female, pig, plasma, iv, 0.2 mg/kg, MRS4322 0.2 mg/kg IV, 6 h, mean, read-out: Plasma Concentration Mean): 15.1 ng/mL | half-life ([1]; female, pig, plasma, iv, 0.2 mg/kg, MRS4322 0.2 mg/kg IV, mean): 205 min | AUC(0-inf) ([1]; female, pig, plasma, iv, 0.2 mg/kg, plasma, MRS4322 0.2 mg/kg IV, individual animals, read-out: AUCINF): 344 ng·h/mL | AUC(0-t) ([1]; female, pig, plasma, iv, 0.2 mg/kg, plasma, MRS4322 0.2 mg/kg IV, individual animals, read-out: AUClast): 238 ng·h/mL | C0 ([1]; female, pig, plasma, iv, 0.2 mg/kg, plasma, MRS4322 0.2 mg/kg IV, individual animals, read-out: C0): 207 ng/mL | clearance ([1]; female, pig, plasma, iv, 0.2 mg/kg, plasma, MRS4322 0.2 mg/kg IV, individual animals, read-out: Cl): 9.68 mL/min/kg | Cmax ([1]; female, pig, plasma, iv, 0.2 mg/kg, plasma, MRS4322 0.2 mg/kg IV, individual animals, read-out: Cmax): 133 ng/mL | Vd ([1]; female, pig, plasma, iv, 0.2 mg/kg, plasma, MRS4322 0.2 mg/kg IV, individual animals, read-out: Vz): 4.04 L/kg | AUC(0-inf) ([1]; female, pig, plasma, iv, 0.2 mg/kg, plasma, MRS4322 0.2 mg/kg IV, mean, read-out: AUCINF Mean): 326 ng·h/mL | AUC(0-t) ([1]; female, pig, plasma, iv, 0.2 mg/kg, plasma, MRS4322 0.2 mg/kg IV, mean, read-out: AUClast Mean): 249 ng·h/mL | C0 ([1]; female, pig, plasma, iv, 0.2 mg/kg, plasma, MRS4322 0.2 mg/kg IV, mean, read-out: C0 Mean): 248 ng/mL | clearance ([1]; female, pig, plasma, iv, 0.2 mg/kg, plasma, MRS4322 0.2 mg/kg IV, mean, read-out: Cl Mean): 10.8 mL/min/kg | Cmax ([1]; female, pig, plasma, iv, 0.2 mg/kg, plasma, MRS4322 0.2 mg/kg IV, mean, read-out: Cmax Mean): 139 ng/mL | Vd ([1]; female, pig, plasma, iv, 0.2 mg/kg, plasma, MRS4322 0.2 mg/kg IV, mean, read-out: Vz Mean): 3.05 L/kg | Tmax ([1]; plasma, MRS4322 0.2 mg/kg IV, individual animals): 15 min | AUCINF [1, 3]: 233 ng·h/mL and 401 ng·h/mL | AUClast [1, 3]: 203 ng·h/mL and 307 ng·h/mL | C0 [1, 3]: 286 ng/mL and 289 ng/mL | Cl [1, 3]: 14.3 mL/min/kg and 8.31 mL/min/kg | Cmax [1, 3]: 120 ng/mL and 163 ng/mL | Half Life [1, 3]: 289 min and 139 min and 188 min | Vz [1, 3]: 2.86 L/kg and 2.25 L/kg | Tmax ([2]; C57BL/6J, mean, read-out: Tmax Mean): 4.98 min | half-life ([2]; C57BL/6J, mean, read-out: Half-life Mean (converted)): 18.6 min | Tmax ([2]; C576BL/6J, animals A-C, read-out: Tmax): 4.98 min | half-life ([2]; C576BL/6J, animals A-C, read-out: Half-life (converted)): 18.4 min
